Where two headings read alike, the source gives them in different places.
What was measured:
Test in all cases: Ras GTP binding domain inhibition assay (Cy3-GTP/Cy5-GTP competition)
KRas G12C mutant = system: KRas G12C mutant; parameters: species or system human; conditions: 20 μM
In short: (§1)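 First, His-tagged protein is coated on nickel wells overnight at 4 °C. Next, compound (20 μM single point or serial dilution) is added for 3 h at room temperature, with or without Sos exchange factor in the last hour. Finally, 100 nM labelled GTP binds for 45 min and retained signal is measured.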

KRas Q61H mutant = system: KRas Q61H mutant; parameters: species or system human; conditions: 20 μM
In short: as §1

KRas wild type = system: KRas wild type; parameters: species or system human; conditions: 20 μM; for KRas wild type % inh.: without SOS (Table 7A)
In short: as §1

KRas G12D mutant = biological target: T1, KRas G12D mutant (Homo sapiens, UniProt P01116, G12D); conditions: 20 μM
T1 construct: fused on or other part: His tag, used for capture on nickel-coated plates
In short: as §1

[1] = with SOS (Table 7A), read-out: KRas G12D mutant + SOS: % inh.
[2] = without SOS (Table 7A), read-out: KRas G12D mutant: % inh.

Structure (SMILES) | KRas G12C mutant + SOS: % inh. (KRas G12C mutant; with SOS) | KRas G12C mutant: % inh. (KRas G12C mutant; without SOS) | KRas Q61H mutant + SOS: % inh. (KRas Q61H mutant; with SOS) | KRas Q61H mutant: % inh. (KRas Q61H mutant; without SOS) | KRas wild type + SOS: % inh. (KRas wild type; with SOS) | KRas wild type: % inh. (KRas wild type; without SOS) | inhibition at 20 µM (KRas G12D mutant; with SOS, read-out: KRas G-12D mutant + SOS: % inh.) | inhibition at 20 µM (KRas G12D mutant; without SOS, read-out: KRas G12D mutant: % inh.) | KRas G12C mutant + SOS: % inh. (KRas G12C mutant; with SOS (Table 7A)) | KRas G12C mutant: % inh. (KRas G12C mutant; without SOS (Table 7A)) | KRas Q61H mutant + SOS: % inh. (KRas Q61H mutant; with SOS (Table 7A)) | KRas Q61H mutant: % inh. (KRas Q61H mutant; without SOS (Table 7A)) | KRas wild type + SOS: % inh. (KRas wild type; with SOS (Table 7A)) | KRas wild type % inh. (KRas wild type) | inhibition at 20 µM (KRas G12D mutant; [1]) | inhibition at 20 µM (KRas G12D mutant; [2])
COc1cccc(-c2csc3c(O)nc(-c4nccn4C)nc23)c1Cl [drawing 878] | A (1-25% inhibition) | A (1-25% inhibition) | A (1-25% inhibition) | A (1-25% inhibition) | A (1-25% inhibition) | A (1-25% inhibition) | 1 to 25% | 1 to 25% |  |  |  |  |  |  |  | 
COc1c(O)nc(-c2ccccn2)nc1Oc1ccc(C(=O)N(C)C)cc1 [drawing 879] |  |  |  |  |  |  |  |  | A (1-25% inhibition) | B (26-50% inhibition) | B (26-50% inhibition) | B (26-50% inhibition) | A (1-25% inhibition) | B (26-50% inhibition) | 26 to 50% | 51 to 75%
COc1c(O)nc(-c2ccccn2)nc1Nc1ccccc1 [drawing 880] |  |  |  |  |  |  |  |  | B (26-50% inhibition) | C (51-75% inhibition) | C (51-75% inhibition) | C (51-75% inhibition) | B (26-50% inhibition) | C (51-75% inhibition) | 26 to 50% | 26 to 50%
CCn1cc(Nc2nc(-c3ccccn3)nc(O)c2OC)cn1 [drawing 881] |  |  |  |  |  |  |  |  | B (26-50% inhibition) | C (51-75% inhibition) | B (26-50% inhibition) | A (1-25% inhibition) | B (26-50% inhibition) | C (51-75% inhibition) | 26 to 50% | 26 to 50%
CCOc1cccc(Nc2nc(-c3ccccn3)nc(O)c2OC)c1 [drawing 882] |  |  |  |  |  |  |  |  | C (51-75% inhibition) | C (51-75% inhibition) | C (51-75% inhibition) | C (51-75% inhibition) | B (26-50% inhibition) | C (51-75% inhibition) | 26 to 50% | 51 to 75%
COc1cccc(-c2sc3nc(-c4nccn4C)nc(NC4CCC(OC)C4)c3c2-c2ccccc2)c1F (stereo not shown) [drawing 883] |  |  |  |  |  |  |  |  | D (76-100% inhibition) | B (26-50% inhibition) | D (76-100% inhibition) | C (51-75% inhibition) | D (76-100% inhibition) | C (51-75% inhibition) | 51 to 75% | 26 to 50%
COC1CCC(Nc2nc(-c3nccn3C)nc3sc(-c4cccc(O)c4F)c(-c4ccccc4)c23)C1 (stereo not shown) [drawing 885] |  |  |  |  |  |  |  |  | C (51-75% inhibition) | B (26-50% inhibition) | C (51-75% inhibition) | B (26-50% inhibition) | C (51-75% inhibition) | B (26-50% inhibition) | 51 to 75% | 26 to 50%
COc1c(F)cccc1-c1sc2nc(-c3nccn3C)nc(NC3CCC(OC)C3)c2c1-c1ccccc1 (stereo not shown) [drawing 886] |  |  |  |  |  |  |  |  | A (1-25% inhibition) | B (26-50% inhibition) | B (26-50% inhibition) | A (1-25% inhibition) | A (1-25% inhibition) | B (26-50% inhibition) | 1 to 25% | 1 to 25%
